Experimental data taken from ChEMBL document CHEMBL4229569, “Structure-Based Design of 1-Heteroaryl-1,3-propanediamine Derivatives as a Novel Series of CC-Chemokine Receptor 5 Antagonists” (J Med Chem, 2018).
pIC50: −log10 of the molar value.

Key:
[1] = target: C-C chemokine receptor type 5 (Homo sapiens, UniProt P51681); assay: Antagonist activity at CCR5 (unknown origin) expressed in HEK293 cells co-expressing Galpha16 assessed as inhibition of RANTES-induced calcium flux preincubated for 10 mins followed by RANTES addition by fluo-4AM-based fluorescence assay; assay type: functional, cell-based
Chain of C-C chemokine receptor type 5 (P51681 whole entry): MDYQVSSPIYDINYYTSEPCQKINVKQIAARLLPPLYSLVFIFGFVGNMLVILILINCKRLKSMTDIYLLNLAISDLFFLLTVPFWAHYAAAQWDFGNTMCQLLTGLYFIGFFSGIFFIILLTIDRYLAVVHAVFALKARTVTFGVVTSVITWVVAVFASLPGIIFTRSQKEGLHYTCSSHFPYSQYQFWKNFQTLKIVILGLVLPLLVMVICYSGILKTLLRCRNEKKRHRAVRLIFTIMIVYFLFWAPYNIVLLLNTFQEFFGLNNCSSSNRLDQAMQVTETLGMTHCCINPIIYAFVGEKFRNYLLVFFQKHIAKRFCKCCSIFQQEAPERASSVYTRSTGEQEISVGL

[2] = system: Human immunodeficiency virus 1; assay: microbe, parasite or virus in culture; settings: Human immunodeficiency virus 1, Ba-L, PM1, 120 h
Description: Antiviral activity against CCR5-dependent HIV1 Ba-L infected in human PM1 cells assessed as reduction in virus infection measured after 5 days by luciferase reporter gene assay

in vitro [3] = settings: human, PBMC
Description: Therapeutic index, ratio of CC50 for human PBMC to IC50 for CCR5-dependent HIV1 SF162 infected in human PBMC cells

Cytochrome P450 3A4 [4] = target: T1, Cytochrome P450 3A4 (Homo sapiens, UniProt P08684); assay: Inhibition of CYP3A4 (unknown origin) using midazolam as substrate; assay type: ADME
T1 sequence (P08684 whole entry): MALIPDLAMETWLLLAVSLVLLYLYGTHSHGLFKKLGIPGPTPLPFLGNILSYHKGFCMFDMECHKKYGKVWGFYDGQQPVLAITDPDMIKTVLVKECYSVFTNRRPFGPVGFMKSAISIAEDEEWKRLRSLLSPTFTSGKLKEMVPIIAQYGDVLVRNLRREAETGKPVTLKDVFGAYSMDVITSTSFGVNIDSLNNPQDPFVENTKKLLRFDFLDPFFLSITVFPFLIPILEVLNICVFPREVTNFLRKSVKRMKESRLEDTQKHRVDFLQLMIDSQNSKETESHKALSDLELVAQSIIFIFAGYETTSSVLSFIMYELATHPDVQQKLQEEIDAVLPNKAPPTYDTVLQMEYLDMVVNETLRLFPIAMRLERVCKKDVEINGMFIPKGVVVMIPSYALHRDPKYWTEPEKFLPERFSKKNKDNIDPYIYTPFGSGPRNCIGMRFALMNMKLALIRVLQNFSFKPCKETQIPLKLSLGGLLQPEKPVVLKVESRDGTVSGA

in vitro [5] = settings: human, PBMC; remark: listed apart in the source
Description: Therapeutic index, ratio of CC50 for human PBMC to IC50 for CCR5-dependent HIV1 KM018 infected in human PBMC

[6] = target: Voltage-gated inwardly rectifying potassium channel KCNH2 (Homo sapiens, UniProt Q12809); assay: Inhibition of human ERG expressed in CHO cells at holding potential of -80 mV after 60 secs by patch clamp assay; assay type: cell-based
Chain of Voltage-gated inwardly rectifying potassium channel KCNH2 (Q12809 whole entry): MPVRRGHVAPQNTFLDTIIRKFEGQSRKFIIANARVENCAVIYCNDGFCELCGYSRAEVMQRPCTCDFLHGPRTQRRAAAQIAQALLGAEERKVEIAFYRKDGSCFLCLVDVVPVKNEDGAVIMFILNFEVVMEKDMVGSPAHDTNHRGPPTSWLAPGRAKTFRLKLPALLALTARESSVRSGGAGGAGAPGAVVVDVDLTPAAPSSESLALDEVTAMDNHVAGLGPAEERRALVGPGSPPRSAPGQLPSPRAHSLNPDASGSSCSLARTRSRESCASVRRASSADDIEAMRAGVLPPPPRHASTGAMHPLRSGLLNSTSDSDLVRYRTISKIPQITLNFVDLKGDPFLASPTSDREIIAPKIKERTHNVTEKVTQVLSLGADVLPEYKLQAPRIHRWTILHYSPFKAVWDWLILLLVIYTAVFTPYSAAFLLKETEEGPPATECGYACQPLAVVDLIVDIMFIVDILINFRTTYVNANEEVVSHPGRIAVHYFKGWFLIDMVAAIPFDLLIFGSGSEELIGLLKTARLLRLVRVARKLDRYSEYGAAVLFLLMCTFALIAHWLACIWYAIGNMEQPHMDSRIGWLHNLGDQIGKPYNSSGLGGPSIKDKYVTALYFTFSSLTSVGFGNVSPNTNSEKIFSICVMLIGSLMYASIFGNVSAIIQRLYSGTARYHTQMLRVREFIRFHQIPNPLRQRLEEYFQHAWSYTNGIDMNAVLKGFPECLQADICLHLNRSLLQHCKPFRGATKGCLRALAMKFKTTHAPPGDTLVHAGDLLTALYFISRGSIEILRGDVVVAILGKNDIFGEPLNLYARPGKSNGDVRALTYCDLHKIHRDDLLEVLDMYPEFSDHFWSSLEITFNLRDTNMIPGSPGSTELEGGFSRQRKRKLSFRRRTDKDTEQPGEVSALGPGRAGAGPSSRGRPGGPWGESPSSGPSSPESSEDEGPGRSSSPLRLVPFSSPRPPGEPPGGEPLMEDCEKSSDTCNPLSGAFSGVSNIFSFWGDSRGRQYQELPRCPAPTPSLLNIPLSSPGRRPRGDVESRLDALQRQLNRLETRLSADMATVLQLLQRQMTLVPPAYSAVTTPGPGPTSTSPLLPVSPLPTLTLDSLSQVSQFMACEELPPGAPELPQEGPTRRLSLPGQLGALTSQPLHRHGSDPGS

[7] = Cmax in Sprague-Dawley rat at 10 mg/kg, iv by LC-MS/MS analysis; assay type: ADME, organism-based; parameters: dose 10 mg/kg, route intravenous; settings: in vivo
[8] = AUC (0 to infinity) in Sprague-Dawley rat at 10 mg/kg, iv by LC-MS/MS analysis; assay type: ADME, organism-based; parameters: dose 10 mg/kg, time infinity, route intravenous; settings: in vivo
[9] = Cytotoxicity against human TZM-bl cells after 48 hrs by MTT assay; assay type: cell-based
Cytochrome P450 2D6 = Cytochrome P450 2D6 (Homo sapiens, UniProt P10635); assay: Inhibition of CYP2D6 (unknown origin); assay type: ADME
Chain of Cytochrome P450 2D6 (P10635 whole entry): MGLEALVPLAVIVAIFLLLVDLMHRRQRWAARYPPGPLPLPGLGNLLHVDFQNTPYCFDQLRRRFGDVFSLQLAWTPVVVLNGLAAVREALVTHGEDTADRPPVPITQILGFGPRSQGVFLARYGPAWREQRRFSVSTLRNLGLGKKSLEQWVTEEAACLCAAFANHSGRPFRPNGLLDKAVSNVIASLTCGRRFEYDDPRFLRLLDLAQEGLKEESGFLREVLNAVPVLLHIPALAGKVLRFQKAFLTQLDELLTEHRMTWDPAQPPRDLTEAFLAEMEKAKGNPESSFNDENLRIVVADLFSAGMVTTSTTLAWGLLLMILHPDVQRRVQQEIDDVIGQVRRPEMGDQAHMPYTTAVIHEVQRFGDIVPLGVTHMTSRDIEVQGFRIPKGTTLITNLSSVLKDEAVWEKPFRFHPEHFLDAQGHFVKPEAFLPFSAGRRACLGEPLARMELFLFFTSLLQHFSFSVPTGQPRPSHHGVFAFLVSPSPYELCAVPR

[10] = system: Human immunodeficiency virus 1; assay: microbe, parasite or virus in culture; settings: Human immunodeficiency virus 1, SF162, PBMC, 168 h
Description: Antiviral activity against CCR5-dependent HIV1 SF162 infected in human PBMC assessed as reduction in virus infection measured after 7 days by luciferase reporter gene assay

[11] = system: Human immunodeficiency virus 1; assay: microbe, parasite or virus in culture; settings: Human immunodeficiency virus 1, KM018, PBMC, 168 h
Description: Antiviral activity against CCR5-dependent HIV1 KM018 infected in human PBMC assessed as reduction in virus infection measured after 7 days by luciferase reporter gene assay

Cytochrome P450 3A4 [12] = target: T1, Cytochrome P450 3A4; assay: Inhibition of CYP3A4 (unknown origin) using testosterone as substrate; assay type: ADME
in vitro [13] = settings: human, PM1 cells
Description: Therapeutic index, ratio of CC50 for human PM1 cells to IC50 for CCR5-dependent HIV1 Ba-L infected in human PM1 cells

Cytochrome P450 1A2 = target: T2, Cytochrome P450 1A2 (Homo sapiens, UniProt P05177); assay: Inhibition of CYP1A2 (unknown origin); assay type: ADME
T2 sequence (P05177 whole entry): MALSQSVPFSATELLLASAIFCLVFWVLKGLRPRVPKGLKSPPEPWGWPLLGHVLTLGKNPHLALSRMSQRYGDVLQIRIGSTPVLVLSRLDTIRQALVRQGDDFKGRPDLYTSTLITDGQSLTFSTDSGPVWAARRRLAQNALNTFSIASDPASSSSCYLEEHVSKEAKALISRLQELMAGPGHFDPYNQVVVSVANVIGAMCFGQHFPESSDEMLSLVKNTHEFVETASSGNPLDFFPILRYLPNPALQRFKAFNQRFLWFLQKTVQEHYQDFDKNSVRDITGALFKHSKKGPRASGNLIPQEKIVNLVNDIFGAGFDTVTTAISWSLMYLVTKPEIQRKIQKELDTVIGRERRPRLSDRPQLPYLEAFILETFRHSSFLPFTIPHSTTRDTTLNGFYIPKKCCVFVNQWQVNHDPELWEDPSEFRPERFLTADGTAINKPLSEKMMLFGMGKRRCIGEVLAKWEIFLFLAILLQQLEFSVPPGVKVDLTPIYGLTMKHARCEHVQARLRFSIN

[14] = Half life in Sprague-Dawley rat at 20 mg/kg, po by LC-MS/MS analysis; assay type: ADME, organism-based; settings: in vivo
[15] = system: Human immunodeficiency virus 1; assay: microbe, parasite or virus in culture; settings: Human immunodeficiency virus 1, Ba-L, HOS, 120 h
Description: Antiviral activity against CCR5-dependent HIV1 Ba-L infected in human HOS cells assessed as reduction in virus infection measured after 5 days by luciferase reporter gene assay

[16] = Tmax in Sprague-Dawley rat at 10 mg/kg, iv by LC-MS/MS analysis; assay type: ADME, organism-based; settings: in vivo
Cytochrome P450 2C19 = Cytochrome P450 2C19 (Homo sapiens, UniProt P33261); assay: Inhibition of CYP2C19 (unknown origin); assay type: ADME
Chain of Cytochrome P450 2C19 (P33261 whole entry): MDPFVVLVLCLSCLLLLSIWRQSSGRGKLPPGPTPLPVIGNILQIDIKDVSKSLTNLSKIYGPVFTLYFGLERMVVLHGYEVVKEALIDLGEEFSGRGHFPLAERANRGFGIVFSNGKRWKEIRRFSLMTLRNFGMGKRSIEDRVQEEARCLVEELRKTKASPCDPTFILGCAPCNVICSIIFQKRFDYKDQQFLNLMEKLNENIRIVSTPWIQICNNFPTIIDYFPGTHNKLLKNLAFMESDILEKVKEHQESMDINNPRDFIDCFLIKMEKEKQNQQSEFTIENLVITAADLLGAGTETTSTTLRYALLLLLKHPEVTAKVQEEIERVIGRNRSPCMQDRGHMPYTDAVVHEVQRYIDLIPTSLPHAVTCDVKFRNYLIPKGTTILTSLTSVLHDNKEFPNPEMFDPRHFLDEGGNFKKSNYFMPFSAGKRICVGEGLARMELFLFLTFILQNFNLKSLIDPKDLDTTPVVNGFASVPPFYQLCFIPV

[17] = MRT in Sprague-Dawley rat at 20 mg/kg, po by LC-MS/MS analysis; assay type: ADME, organism-based; settings: in vivo
Cytochrome P450 2C9 = Cytochrome P450 2C9 (Homo sapiens, UniProt P11712); assay: Inhibition of CYP2C9 (unknown origin); assay type: ADME
Chain of Cytochrome P450 2C9 (P11712 whole entry): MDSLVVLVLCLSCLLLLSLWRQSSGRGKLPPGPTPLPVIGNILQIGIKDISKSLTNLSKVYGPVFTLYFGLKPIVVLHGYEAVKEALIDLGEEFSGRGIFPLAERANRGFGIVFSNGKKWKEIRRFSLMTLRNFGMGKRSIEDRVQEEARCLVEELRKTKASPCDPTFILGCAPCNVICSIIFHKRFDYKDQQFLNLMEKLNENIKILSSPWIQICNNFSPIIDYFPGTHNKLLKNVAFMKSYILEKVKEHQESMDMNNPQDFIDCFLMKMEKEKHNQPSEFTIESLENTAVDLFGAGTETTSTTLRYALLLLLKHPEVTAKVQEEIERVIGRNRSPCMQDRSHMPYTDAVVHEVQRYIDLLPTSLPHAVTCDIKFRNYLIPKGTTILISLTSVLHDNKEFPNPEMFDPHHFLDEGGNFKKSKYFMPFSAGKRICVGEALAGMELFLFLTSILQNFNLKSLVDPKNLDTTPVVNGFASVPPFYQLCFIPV

[18] = Oral bioavailability in Sprague-Dawley rat at 20 mg/kg by LC-MS/MS analysis; assay type: ADME, organism-based; settings: in vivo
in vitro [19] = settings: human, PBMC; remark: listed apart in the source
Description: Therapeutic index, ratio of CC50 for human PBMC to IC50 for CCR5-dependent HIV1 Ba-L infected in human PBMC

in vitro [20] = settings: human, HOS cells
Description: Therapeutic index, ratio of CC50 for human HOS cells to IC50 for CCR5-dependent HIV1 Ba-L infected in human HOS cells

[21] = AUC (0 to infinity) in Sprague-Dawley rat at 20 mg/kg, po by LC-MS/MS analysis; assay type: ADME, organism-based; parameters: dose 20 mg/kg, route oral, time infinity; settings: in vivo
[22] = system: Human immunodeficiency virus 1; assay: microbe, parasite or virus in culture; settings: Human immunodeficiency virus 1, SF162, TZM-bl, 48 h
Description: Antiviral activity against CCR5-dependent HIV1 SF162 infected in human TZM-bl cells assessed as reduction in virus infection measured after 48 hrs post infection by luciferase reporter gene assay

[23] = MRT in Sprague-Dawley rat at 10 mg/kg, iv by LC-MS/MS analysis; assay type: ADME, organism-based; settings: in vivo
in vitro [24] = settings: human, TZM-bl cells
Description: Therapeutic index, ratio of CC50 for human TZM-bl cells to EC50 for CCR5-dependent HIV1 SF162 infected in human TZM-bl cells

[25] = Half life in Sprague-Dawley rat at 10 mg/kg, iv by LC-MS/MS analysis; assay type: ADME, organism-based; settings: in vivo
[26] = system: Human immunodeficiency virus 1; assay: microbe, parasite or virus in culture; settings: Human immunodeficiency virus 1, SF162, HOS, 120 h
Description: Antiviral activity against CCR5-dependent HIV1 SF162 infected in human HOS cells assessed as reduction in virus infection measured after 5 days by luciferase reporter gene assay

[27] = Clearance in Sprague-Dawley rat at 10 mg/kg, iv by LC-MS/MS analysis; assay type: ADME, organism-based; settings: in vivo
in vitro [28] = settings: human, HOS cells; remark: listed apart in the source
Description: Therapeutic index, ratio of CC50 for human HOS cells to IC50 for CCR5-dependent HIV1 SF162 infected in human HOS cells

[29] = Tmax in Sprague-Dawley rat at 20 mg/kg, po by LC-MS/MS analysis; assay type: ADME, organism-based; settings: in vivo
[30] = system: Human immunodeficiency virus 1; assay: microbe, parasite or virus in culture; settings: Human immunodeficiency virus 1, Ba-L, PBMC, 168 h
Description: Antiviral activity against CCR5-dependent HIV1 Ba-L infected in human PBMC assessed as reduction in virus infection measured 7 days by luciferase reporter gene assay

[31] = Cmax in Sprague-Dawley rat at 20 mg/kg, po by LC-MS/MS analysis; assay type: ADME, organism-based; parameters: dose 20 mg/kg, route oral; settings: in vivo

Cc1nnc(C2CC2)n1[C@@H]1C[C@H]2CC[C@@H](C1)N2CC[C@H](NC(=O)C1CCC(F)(F)CC1)c1ccsc1
pIC50 [1]: 8.59

Cc1ccc([C@H](CCN2[C@@H]3CC[C@H]2C[C@H](n2c(C)nnc2C(C)C)C3)NC(=O)c2ccccc2)s1
pIC50 [1]: 7.29

Cc1nnc(C(C)C)n1[C@@H]1C[C@H]2CC[C@@H](C1)N2CC[C@H](NC(=O)C1CCC(F)(F)CC1)c1ccc(Cl)s1
pIC50 [1]: 7.92

Cc1nnc(C(C)C)n1[C@@H]1C[C@H]2CC[C@@H](C1)N2CC[C@H](NC(=O)C1CCC(F)(F)CC1)c1ccc(F)nc1
pIC50 [1]: 6.60

Cc1nnc(C2CC2)n1[C@@H]1C[C@H]2CC[C@@H](C1)N2CC[C@H](NC(=O)C1CCC(F)(F)CC1)c1cccs1
pIC50 [1]: 8.54

Cc1nnc(C(C)C)n1[C@@H]1C[C@H]2CC[C@@H](C1)N2CC[C@H](NC(=O)C1CCC(F)(F)CC1)c1cccs1
pIC50 [2]: 8.21
selectivity ratio (in vitro [3]): 92000
pIC50 (Cytochrome P450 3A4 [4]): < 4.60
selectivity ratio (in vitro [5]): 56000
pIC50 [6]: 5.46
Cmax [7]: 6840 ng/mL
AUC(0-inf) [8]: 7050 ng·h/mL
CC50 at 48 h [9]: > 200000 nM
pIC50 (Cytochrome P450 2D6): < 4.60
pIC50 [10]: 8.54
pIC50 [11]: 8.32
pIC50 (Cytochrome P450 3A4 [12]): < 4.60
selectivity ratio (in vitro [13]): 99000
pIC50 (Cytochrome P450 1A2): < 4.60
half-life [14]: 2.1 h
pIC50 [15]: 8.44
Tmax [16]: 0.25 h
pIC50 (Cytochrome P450 2C19): < 4.60
MRT [17]: 3.3 h
pIC50 (Cytochrome P450 2C9): < 4.60
bioavailability [18]: 7.8%
selectivity ratio (in vitro [19]): 9400
selectivity ratio (in vitro [20]): 100000
AUC(0-inf) [21]: 1110 ng·h/mL
pIC50 [22]: 8.44
MRT [23]: 0.7 h
selectivity ratio (in vitro [24]): > 55000
half-life [25]: 0.77 h
pIC50 [1]: 8.04
pIC50 [26]: 7.88
clearance [27]: 23.7 mL/min/kg
selectivity ratio (in vitro [28]): 28000
Tmax [29]: 4 h
pIC50 [30]: 7.55
Cmax [31]: 266 ng/mL

Cc1nnc(C(C)C)n1[C@@H]1C[C@H]2CC[C@@H](C1)N2CC[C@H](NC(=O)C1CCC(F)(F)C1)c1cccs1 (stereo not given in full)
pIC50 [1]: 8.64

Cc1nnc(C(C)C)n1[C@@H]1C[C@H]2CC[C@@H](C1)N2CC[C@H](NC(=O)[C@@H]1CCC(=O)N1)c1cccs1
pIC50 [1]: 7.69

Cc1ccc([C@H](CCN2[C@@H]3CC[C@H]2C[C@H](n2c(C)nnc2C(C)C)C3)NC(=O)C2CCC(F)(F)CC2)s1
pIC50 [2]: 7.83
selectivity ratio (in vitro [3]): > 29000
pIC50 (Cytochrome P450 3A4 [4]): 4.96
selectivity ratio (in vitro [5]): > 1600
pIC50 [6]: 5.47
Cmax [7]: 1690 ng/mL
AUC(0-inf) [8]: 2330 ng·h/mL
CC50 at 48 h [9]: > 200000 nM
pIC50 (Cytochrome P450 2D6): < 4.60
pIC50 [10]: 8.17
pIC50 [11]: 6.90
pIC50 (Cytochrome P450 3A4 [12]): 4.63
selectivity ratio (in vitro [13]): > 13000
pIC50 (Cytochrome P450 1A2): < 4.60
half-life [14]: 32.8 h
pIC50 [15]: 7.94
Tmax [16]: 0.25 h
pIC50 (Cytochrome P450 2C19): < 4.60
MRT [17]: 4.8 h
pIC50 (Cytochrome P450 2C9): < 4.60
bioavailability [18]: 40.1%
selectivity ratio (in vitro [19]): > 833
selectivity ratio (in vitro [20]): > 18000
AUC(0-inf) [21]: 1870 ng·h/mL
pIC50 [22]: 7.94
MRT [23]: 2.3 h
selectivity ratio (in vitro [24]): > 17000
half-life [25]: 1.6 h
pIC50 [1]: 8.55
pIC50 [26]: 7.73
clearance [27]: 71.7 mL/min/kg
selectivity ratio (in vitro [28]): > 11000
Tmax [29]: 2 h
pIC50 [30]: 6.62
Cmax [31]: 580 ng/mL

Cc1nnc(C(C)C)n1[C@@H]1C[C@H]2CC[C@@H](C1)N2CC[C@H](NC(=O)C1CC(F)(F)C1)c1cccs1
pIC50 [1]: 8.59

Cc1nnc(C(C)C)n1[C@@H]1C[C@H]2CC[C@@H](C1)N2CC[C@H](NC(=O)C1CCC(F)(F)CC1)c1cccnc1
CC50 at 48 h [9]: > 100000 nM
pIC50 [22]: 5.82
selectivity ratio (in vitro [24]): > 65.8
pIC50 [1]: 7.08

Cc1ccc([C@H](CCN2[C@@H]3CC[C@H]2C[C@H](n2c(C)nnc2C(C)C)C3)NC(=O)Cc2ccc(F)cc2)s1
pIC50 [1]: 7.48

COc1ccc([C@H](CCN2[C@@H]3CC[C@H]2C[C@H](n2c(C)nnc2C(C)C)C3)NC(=O)C2CCC(F)(F)CC2)s1
pIC50 [1]: 8.17

Cc1ccc([C@H](CCN2[C@@H]3CC[C@H]2C[C@H](n2c(C(C)C)nnc2C(F)(F)F)C3)NC(=O)C2CCC(F)(F)CC2)s1
pIC50 [1]: 8.40
